Results as given in PubChem BioAssay AID977613 (Broad Institute, 2014).
Active and inactive are the calls of the source. No rule for the calls is given here.

test system: Broad 7084-01 inhibitor HTS, set 2; assay: inhibitors in Broad screen 7084-01, set 2 (AID 977613);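 also: host cells are infected with parasite promastigotes that become internalized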

| SMILES | active concentration |
| --- | --- |
| CCCC#Cc1ccc([C@@H]2[C@H]3CN(S(=O)(=O)c4ccccc4C)CC(=O)N3[C@H]2CO)cc1 | > 10 µM (inactive) |
| CC(C)NC(=O)N1[C@@H]2CN(C)c3ccccc3[C@@H]2[C@@H]1CO | > 10 µM (inactive) |
| CCNC(=O)C[C@H]1CC[C@H]2[C@@H](COC[C@@H](O)CN2C(=O)C2CC2)O1 | > 10 µM (inactive) |
| COc1ccccc1CNC(=O)C[C@@H]1CC[C@H]2[C@@H](COC[C@@H](O)CN2C(=O)Nc2ccccc2)O1 | > 10 µM (inactive) |
| O=C(C1CCCCC1)N1C[C@@H]2[C@H](c3ccccc31)[C@H](CO)N2C(=O)Cc1ccccn1 | > 10 µM (inactive) |
| COc1ccc(CN2[C@H](CO)[C@H]3c4ccccc4N(C(=O)Nc4ccc(F)cc4)C[C@H]32)cc1 | > 10 µM (inactive) |
| CC(C)(O)C#Cc1ccc([C@H]2[C@@H](CO)N3CCCCN(S(C)(=O)=O)C[C@@H]23)cc1 | > 10 µM (inactive) |
| COc1ccc2c3c(n(C)c2c1)[C@@H](CO)NCC31CCN(Cc2cc(F)ccc2F)CC1 | > 10 µM (inactive) |
| COc1cccc(C(=O)N2C[C@H]3[C@@H](c4ccccc42)[C@H](CO)N3Cc2ccccc2Cl)c1 | < 10 µM |
| CCNC(=O)C[C@H]1CC[C@@H]2[C@H](COC[C@@H](O)CN2C(=O)C2CC2)O1 | > 10 µM (inactive) |
| O=C([C@@H]1N[C@@H]2c3ccc(-c4ccccc4F)c(=O)n3C[C@@H]2[C@H]1CO)N1CCc2ccccc2C1 | > 10 µM (inactive) |
| O=C(Nc1cc(F)ccc1F)N1CC(=O)N2[C@H](C1)[C@@H](c1ccc(/C=C/c3ccccc3)cc1)[C@@H]2CO | > 10 µM (inactive) |
| O=C(C[C@H]1CC[C@@H]2[C@H](COC[C@H](O)CN2C(=O)c2ccccc2F)O1)NCc1ccccc1 | > 10 µM (inactive) |
| CC(C)CC#Cc1ccc([C@H]2[C@@H](CO)N3C(=O)CN(C(=O)c4ccccn4)C[C@@H]23)cc1 | > 10 µM (inactive) |
| Cc1ccc(-c2ccccc2[C@@H]2[C@H](C#N)N(C(=O)c3cccc(F)c3)[C@H]2CO)cc1 | > 10 µM (inactive) |
| COC(=O)c1ccc(CN2CC(=O)N3[C@@H](CO)[C@H](c4ccc(-c5cccnc5)cc4)[C@@H]3C2)cc1 | > 10 µM (inactive) |
| C/C=C/c1ccccc1[C@H]1[C@@H](CO)N(C(=O)Nc2cccc(F)c2)[C@H]1C#N | > 10 µM (inactive) |
| CCN1CC(=O)N2[C@H](CO)[C@H](c3ccc(Br)cc3)[C@@H]2C1 | > 10 µM (inactive) |
| CN(C)CC(=O)N1[C@H](CO)[C@H](c2ccccc2-c2ccccc2F)[C@@H]1C#N | > 10 µM (inactive) |
| CC=Cc1ccc2n(c1=O)C[C@H]1[C@H](CO)[C@@H](C(=O)Nc3ccc(-c4ccccc4)cc3)[C@@H]2N1C(=O)CC (mixture of isomers) | > 10 µM (inactive) |
| CN(C)CC#Cc1ccc([C@H]2[C@H]3CN(C(=O)Nc4ccccc4F)CCCCN3[C@H]2CO)cc1 | > 10 µM (inactive) |
| C/C=C/c1ccc([C@@H]2[C@H](CO)N(C(=O)CC)C23CN(CCC(F)(F)F)C3)cc1 | > 10 µM (inactive) |
| CCCNC(=O)N1CC2(CCN(C(=O)c3cccc(F)c3)CC2)c2c([nH]c3cc(OC)ccc23)[C@H]1CO | > 10 µM (inactive) |
| CN1C(=O)c2cc(NC(=O)Cc3cccs3)ccc2OC[C@@H]2O[C@@H](CC(=O)N[C@H]3CCN(Cc4ccccc4)C3)CC[C@H]21 | > 10 µM (inactive) |

| SMILES | active concentration |
| --- | --- |
| CC(C)CC#Cc1ccc([C@@H]2[C@H](CO)N3C(=O)CN(S(=O)(=O)c4cccc(F)c4)C[C@@H]23)cc1 | > 10 µM (inactive) |
| CN(C)C(=O)C[C@H]1CC[C@H]2[C@@H](COC[C@H](O)CN2CC2CC2)O1 | > 10 µM (inactive) |
| COc1cc(CN2CC3(CN(C(=O)CN4CCOCC4)C3)c3c(n(C)c4cc(OC)ccc34)[C@@H]2CO)cc(OC)c1 | > 10 µM (inactive) |
| O=C(C[C@H]1CC[C@@H]2[C@H](COC[C@@H](O)CN2S(=O)(=O)c2ccc(F)cc2)O1)NCC1CC1 | > 10 µM (inactive) |
| CCS(=O)(=O)Nc1ccc2c(c1)C(=O)N(C)[C@H]1CC[C@H](CC(=O)N[C@@H]3CCN(Cc4ccccc4)C3)O[C@@H]1CO2 | > 10 µM (inactive) |
| CCS(=O)(=O)Nc1ccc2c(c1)C(=O)N(C)[C@@H]1CC[C@H](CC(=O)NCCOC)O[C@H]1CO2 | > 10 µM (inactive) |
| O=C(C[C@@H]1CC[C@@H]2[C@H](COC[C@@H](O)CN2Cc2ccc(Cl)cc2)O1)NCc1ccccc1Cl | > 10 µM (inactive) |
| O=C(C[C@@H]1CC[C@H]2[C@@H](COC[C@@H](O)CN2CC2CC2)O1)NCc1ccc(Cl)cc1 | > 10 µM (inactive) |
| COC(=O)c1ccc(CN2CC(=O)N3[C@H](CO)[C@H](c4ccc(-c5cccnc5)cc4)[C@H]3C2)cc1 | > 10 µM (inactive) |
| O=S(=O)(c1ccccc1F)N1CC[C@@H]2[C@H]1c1cc(-c3ccccc3F)ccc1N[C@@H]2CO | > 10 µM (inactive) |
| OC[C@@H]1[C@H](c2ccccc2)C2(CN(Cc3nccs3)C2)N1CCC(F)(F)F | > 10 µM (inactive) |
| CC=Cc1ccc2n(c1=O)C[C@H]1[C@H](CO)[C@@H](C(=O)Nc3ccccc3)N(CC3CCCC3)[C@@H]21 (mixture of isomers) | > 10 µM (inactive) |
| COc1cc(CN2CC3(CCN(S(=O)(=O)c4cn(C)cn4)CC3)c3c(n(C)c4cc(OC)ccc34)[C@H]2CO)cc(OC)c1 | > 10 µM (inactive) |
| COc1ccc2c3c(n(C)c2c1)[C@@H](CO)N(C(=O)Cc1ccccc1)CC31CN(C)C1 | > 10 µM (inactive) |
| CS(=O)(=O)N1[C@@H]2c3ccc(C4=CCCC4)c(=O)n3C[C@@H]2[C@@H](CO)[C@@H]1C(=O)NCCc1ccncc1 | > 10 µM (inactive) |
| CN1CCN(C(=O)C[C@@H]2CC[C@@H]3[C@H](COC[C@@H](O)CN3CC3CC3)O2)CC1 | > 10 µM (inactive) |
| CN1C(=O)c2cc(NC(=O)Nc3ccccc3Cl)ccc2OC[C@H]2O[C@@H](CC(=O)NCCCN3CCOCC3)CC[C@H]21 | > 10 µM (inactive) |
| C/C=C/c1ccc([C@@H]2[C@@H](CO)N3C(=O)CN(C(=O)c4ccncc4)C[C@@H]23)cc1 | > 10 µM (inactive) |
| CN1C(=O)c2cc(NC(=O)c3cnccn3)ccc2OC[C@@H]2O[C@@H](CC(=O)NCC3CCCCC3)CC[C@H]21 | > 10 µM (inactive) |
| COC(=O)C[C@@H]1CC[C@@H]2[C@H](COc3ccc(NS(=O)(=O)c4ccccc4Cl)cc3C(=O)N2C)O1 | > 10 µM (inactive) |
| COc1ccc(NC(=O)N2CCCCN3[C@H](C2)[C@@H](c2ccc(-c4ccccc4F)cc2)[C@@H]3CO)cc1 | > 10 µM (inactive) |
| OC[C@@H]1[C@H](c2ccccc2)C2(CN(Cc3nccs3)C2)N1Cc1cccnc1 | > 10 µM (inactive) |
| COc1ccc2c3c([nH]c2c1)[C@@H](CO)N(C(=O)c1ccc(F)cc1)CC31CCN(S(=O)(=O)c2cccs2)CC1 | > 10 µM (inactive) |
| O=C(NC1CCCC1)N1CCCCN2[C@H](CO)[C@H](c3ccc(-c4cccnc4)cc3)[C@H]2C1 | > 10 µM (inactive) |

| SMILES | active concentration |
| --- | --- |
| O=C(NC1Cc2ccccc2C1)[C@H]1[C@H](CO)[C@H]2Cn3c(cccc3=O)[C@H]2N1C(=O)c1cnccn1 | > 10 µM (inactive) |
| CN1C(=O)c2cc(NC(=O)Cc3cccs3)ccc2OC[C@H]2O[C@H](CC(=O)N[C@@H]3CCN(Cc4ccccc4)C3)CC[C@@H]21 | > 10 µM (inactive) |
| N#C[C@@H]1[C@H](c2ccccc2C2=CCCCC2)[C@H](CO)N1C(=O)c1cccc(F)c1 | > 10 µM (inactive) |
| CN1C[C@@H]2[C@H](c3ccccc31)[C@H](CO)N2Cc1ccccc1Cl | > 10 µM (inactive) |
| CN1CCN(C(=O)C[C@@H]2CC[C@@H]3[C@H](COC[C@H](O)CN3CC3CC3)O2)CC1 | > 10 µM (inactive) |
| C/C=C/c1ccccc1[C@@H]1[C@H](C#N)N(C(C)=O)[C@H]1CO | > 10 µM (inactive) |
| O=C(O)[C@H]1[C@H](CO)[C@H]2Cn3c(ccc(C4=CCCCC4)c3=O)[C@@H]1N2C(=O)Cc1ccccn1 | > 10 µM (inactive) |
| O=C(C[C@@H]1CC[C@@H]2[C@H](COC[C@@H](O)CN2Cc2ccc3c(c2)OCO3)O1)Nc1ccccc1 | > 10 µM (inactive) |
| O=C(c1ccccn1)N1C[C@@H]2[C@H](c3ccccc31)[C@H](CO)N2C(=O)Nc1ccccc1F | > 10 µM (inactive) |
| COc1ccccc1CN1CC[C@@H]2[C@@H](CO)Nc3ccc(C#Cc4ccccc4)cc3[C@@H]21 | > 10 µM (inactive) |
| O=C(Nc1cc(F)ccc1F)N1CCCCN2[C@H](C1)[C@H](c1ccc(C3=CCCCC3)cc1)[C@@H]2CO | > 10 µM (inactive) |
| O=C(NCC(F)(F)F)[C@@H]1[C@@H](CO)[C@@H]2Cn3c(cccc3=O)[C@H]1N2CC1CCOCC1 | > 10 µM (inactive) |
| C/C=C/c1ccccc1[C@@H]1[C@@H](CO)N(C(=O)CN2CCOCC2)[C@H]1C#N | > 10 µM (inactive) |
| O=C(c1cccc(F)c1)N1C[C@@H]2[C@H](c3ccccc31)[C@H](CO)N2Cc1cocn1 | > 10 µM (inactive) |
| O=C(C1CCCC1)N1CC2(C1)[C@H](c1ccccc1)[C@@H](CO)N2CC1CC1 | > 10 µM (inactive) |
| N#C[C@H]1[C@@H](c2ccccc2-c2ccccc2F)[C@H](CO)N1C(=O)C1CCC1 | > 10 µM (inactive) |
| Cc1noc(C)c1NC(=O)N1C[C@H](O)COC[C@H]2O[C@H](CC(=O)NCC3CCCCC3)CC[C@@H]21 | > 10 µM (inactive) |
| C/C=C/c1ccc([C@@H]2[C@@H](CO)N3C(=O)CN(S(=O)(=O)c4ccccc4)C[C@@H]23)cc1 | > 10 µM (inactive) |
| O=C([C@@H]1[C@@H](CO)[C@@H]2Cn3c(cccc3=O)[C@H]1N2CC1CC1)N1CCc2ccccc2C1 | > 10 µM (inactive) |
| CCS(=O)(=O)N1CC(=O)N2[C@@H](CO)[C@@H](c3ccc(C#CC4CCCCC4)cc3)[C@@H]2C1 | > 10 µM (inactive) |
| O=C(C[C@@H]1CC[C@@H]2[C@H](COC[C@H](O)CN2CC2CC2)O1)NCC1CC1 | > 10 µM (inactive) |
| O=C(c1ccccc1)N1CC(=O)N2[C@H](CO)[C@@H](c3ccc(-c4ccccc4)cc3)[C@H]2C1 | > 10 µM (inactive) |
